Measurements published in patent US10865191B2, “Heterocyclic compounds useful as modulators of TNF alpha” (BRISTOL-MYERS SQUIBB COMPANY, priority 2015, dated 2020).

Biological target: TNFα (Homo sapiens, UniProt P01375)
Assay: TNF induced HEK-Blue assay (NF-kB-driven secreted alkaline phosphatase reporter)
Format: cell-based
Conditions: TNFα 0.5 ng/mL, HEK-Blue-CD40L cells, 18 h; read-out: TNF induced HEK-Blue assay IC50 value
In short: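 HEK-Blue-CD40L cells (NF-kB-driven SEAP reporter), 20,000/well, added after 30 min pre-incubation of compound (0.004–25 μM final) with TNFα 0.5 ng/mL final at 37 °C; 18 h incubation. SEAP read with QUANTI-Blue at 620 nm; IC50 from 4-parameter logistic fit, normalized to unstimulated and stimulated DMSO controls.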

TNFα, sequence (P01375 77-233 limits assumed): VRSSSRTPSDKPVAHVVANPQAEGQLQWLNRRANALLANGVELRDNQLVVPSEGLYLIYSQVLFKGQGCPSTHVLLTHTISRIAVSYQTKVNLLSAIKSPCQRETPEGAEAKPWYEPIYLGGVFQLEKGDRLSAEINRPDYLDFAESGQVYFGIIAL

| IC50 [µM] | Structure (SMILES) |
| --- | --- |
| < 1 | Cc1nc2ccc(-c3cnc(C(C)(C)O)nc3)cc2c(N[C@H](C)c2cc(Cl)ccc2F)c1Cl [Example 406, (R)-2-(5-(3-chloro-4-((1-(5-chloro-2-fluorophenyl)ethyl)amino)-2-methylquinolin-6-yl)pyrimidin-2-yl)propan-2-ol] |
| < 1 | Cc1nc2ccc(-c3cnc(C(C)(C)O)nc3)cc2c(N[C@H](C)c2cc(N3CCNC3=O)ccc2F)c1Cl [Example 373, (R)-1-(3-(1-((3-chloro-6-(2-(2-hydroxypropan-2-yl)pyrimidin-5-yl)-2-methylquinolin-4-yl)amino)ethyl)-4-fluorophenyl)imidazolidin-2-one] |
| < 1 | CC(C)(O)c1ncc(-c2cc(F)c3ncc(Cl)c(N[C@@H](c4ccccc4F)C(F)F)c3c2)cn1 [Example 297, (S)-2-(5-(3-chloro-4-((2,2-difluoro-1-(2-fluorophenyl)ethyl)amino)-8-fluoroquinolin-6-yl)pyrimidin-2-yl)propan-2-ol] |
| < 1 | COc1ncc(-c2ccc(F)c([C@@H](C)Nc3c(Cl)cnc4ccccc34)c2)cc1N [Example 521, (R)—N-(1-(5-(5-amino-6-methoxypyridin-3-yl)-2-fluorophenyl)ethyl)-3-chloroquinolin-4-amine] |
| 10 to 25 | CCCC(C)C(N)c1c(Cl)c(C)nc2ccc(-c3cnc(C(C)(C)O)nc3)cc12 (single isomer, unassigned) [Example 358, 2-(5-(4-(1-amino-2-methylpentyl)-3-chloro-2-methylquinolin-6-yl)pyrimidin-2-yl)propan-2-ol] |
| < 1 | CC(C)(O)c1ncc(-c2ccc3ncc(Cl)c(NC(c4ccccc4F)C(C)(C)O)c3c2)cn1 (racemic) [Example 49, 1-((3-chloro-6-(2-(2-hydroxypropan-2-yl)pyrimidin-5-yl)quinolin-4-yl)amino)-1-(2-fluorophenyl)-2-methylpropan-2-ol] |
| 1 to 10 | C[C@@H](Nc1c(Cl)cnc2cc(F)c(-c3cnc(C(C)(C)O)nc3)nc12)c1cc(C(=O)O)ccc1F [Example 579, (R)-3-(1-((3-chloro-7-fluoro-6-(2-(2-hydroxypropan-2-yl)pyrimidin-5-yl)-1,5-naphthyridin-4-yl)amino)ethyl)-4-fluorobenzoic acid] |
| 1 to 10 | C[C@H](Nc1c(Cl)cnc2ccc(-c3cnc(C(C)(C)O)nc3)cc12)[C@H]1CCCN(S(=O)(=O)c2cnn(C)c2)C1 [Example 564, 2-(5-(3-chloro-4-(((S)-1-((S)-1-((1-methyl-1H-pyrazol-4-yl)sulfonyl)piperidin-3-yl)ethyl)amino)quinolin-6-yl)pyrimidin-2-yl)propan-2-ol] |
| 1 to 10 | O=C(O)[C@@H]1CN(c2ncc(-c3ccc4ncc(Cl)c(N[C@@H](c5ccccc5F)C(F)F)c4c3)cn2)CCN1 [Example 74, (S)-4-(5-(3-chloro-4-(((S)-2,2-difluoro-1-(2-fluorophenyl)ethyl)amino)quinolin-6-yl)pyrimidin-2-yl)piperazine-2-carboxylic acid] |
| < 1 | CC(Nc1c(Cl)cnc2cc(F)c(-c3cnc(N4CCN(C(=O)[C@H](N)CO)CC4)nc3)cc12)c1ccccc1F (single isomer, unassigned) [Example 606] |
| 10 to 25 | CC(C)(O)c1ncc(-c2ccc3ncc(Cl)c(NCc4ccc(Br)cc4-n4cccn4)c3c2)cn1 [Example 56, 2-(5-(4-((4-bromo-2-(1H-pyrazol-1-yl)benzyl)amino)-3-chloroquinolin-6-yl)pyrimidin-2-yl)propan-2-ol] |
| < 1 | COC(=O)c1ccc(F)c([C@@H](C)Nc2c(Cl)cnc3ccc(-c4cnc(C(C)(C)O)nc4)cc23)c1 [Example 415, Methyl (R)-3-(1-((3-chloro-6-(2-(2-hydroxypropan-2-yl)pyrimidin-5-yl)quinolin-4-yl)amino)ethyl)-4-fluorobenzoate] |
| < 1 | CC(Nc1c(Cl)cnc2cc(F)c(-c3cnc(C4(O)CCS(=O)(=O)CC4)nc3)cc12)c1ccccc1F (centres unmarked) [Example 289, 4-(5-(3-chloro-7-fluoro-4-((1-(2-fluorophenyl)ethyl)amino)quinolin-6-yl)pyrimidin-2-yl)-4-hydroxytetrahydro-2H-thiopyran 1,1-dioxide] |
| < 1 | C[C@H](Nc1c(Cl)cnc2cc(F)c(-c3cnc(C(C)(C)O)nc3)nc12)c1ccccc1 [Example 208, (S)-2-(5-(7-chloro-3-fluoro-8-((1-phenylethyl)amino)-1,5-naphthyridin-2-yl)pyrimidin-2-yl)propan-2-ol] |
| < 1 | CC(Nc1c(Cl)cnc2cc(F)c(-c3ccc(C4(CO)CC4)cc3)cc12)c1ccccc1F (centres unmarked) [Example 265, (1-(4-(3-chloro-7-fluoro-4-((1-(2-fluorophenyl)ethyl)amino)quinolin-6-yl)phenyl)cyclopropyl) methanol] |
| < 1 | Cc1nc2cc(F)c(-c3cnc(N4CCNC(=O)C4)nc3)cc2c(N[C@H](C)c2cc(C#N)ccc2F)c1Cl [Example 561, (R)-3-(1-((3-chloro-7-fluoro-2-methyl-6-(2-(3-oxopiperazin-1-yl)pyrimidin-5-yl)quinolin-4-yl)amino)ethyl)-4-fluorobenzonitrile] |
| < 1 | CC(C)(O)c1ncc(-c2ccc3ncc(Cl)c(NCc4ccccc4C(F)(F)F)c3c2)cn1 [Example 146, 2-(5-(3-chloro-4-((2-(trifluoromethyl)benzyl)amino)quinolin-6-yl)pyrimidin-2-yl)propan-2-ol] |
| < 1 | Cc1nc2cc(F)c(-c3cnc(C(C)(C)O)nc3)cc2c(N[C@H](C)c2cc(CCO)ccc2F)c1Cl [Example 325, (R)-2-(5-(3-chloro-7-fluoro-4-((1-(2-fluoro-5-(2-hydroxyethyl)phenyl)ethyl)amino)-2-methylquinolin-6-yl)pyrimidin-2-yl) propan-2-ol] |
| < 1 | CC(Nc1c(Cl)cnc2cc(F)c(-c3cnc(N4CCNCC4)nc3)cc12)c1ccccc1F (single isomer, unassigned) [Example 608, 3-chloro-7-fluoro-N-(1-(2-fluorophenyl)ethyl)-6-(2-(piperazin-1-yl)pyrimidin-5-yl)quinolin-4-amine] |
| < 1 | CC(C)(O)c1ncc(-c2ccc3ncc(Cl)c(N[C@H](CCF)c4ccccc4F)c3c2)cn1 (single isomer, unassigned) [Example 238] |
| 1 to 10 | CC(Nc1c(Cl)cnc2ccc(-c3cnc(C(C)(C)O)nc3)cc12)c1ccc(F)cc1F (racemic) [Example 163, 2-(5-(3-chloro-4-((1-(2,4-difluorophenyl)ethyl)amino)quinolin-6-yl)pyrimidin-2-yl)propan-2-ol] |
| < 1 | Cc1ccc(C)c(Nc2c(Cl)c(N)nc3ccc(-c4cnc(NCC(C)(C)O)nc4)cc23)c1 [Example 69, 1-((5-(2-amino-3-chloro-4-((2,5-dimethylphenyl)amino)quinolin-6-yl)pyrimidin-2-yl)amino)-2-methylpropan-2-ol] |
| < 1 | Cc1nc2c(F)cc(-c3ccc(C(C)(C)O)cc3)cc2c(N[C@@H](c2ccccc2F)C(F)F)c1Cl [Example 305, (S)-2-(4-(3-chloro-4-((2,2-difluoro-1-(2-fluorophenyl)ethyl)amino)-8-fluoro-2-methylquinolin-6-yl)phenyl)propan-2-ol] |
